# Data: US20050020542A1, “Method of modulating sodium ion absorption in epithelial cells” (priority 2001, published 2005)
# How the values were obtained:
# [1] = test system: calcium-activated Cl- channel; assay: Perforated patch whole cell recording of Cl- current; type: cell-based, human
# Protocol: In FIGS. 4A and 4B, the response to 10 μM INO-E2 is contrasted with the response to ATP.
# [2] = test system: human CF nasal epithelia; assay: Blue Dextran volume transport assay (fluid absorption); type: cell-based; conditions: for inhibition of fluid absorption, dose response: Blue Dextran Assay, 18 hrs apical exposure
# Text: In normal human airway epithelia, Na^+ and Cl^− currents (CFTR and Ca^2+-activated Cl^− currents) contribute to airway surface liquid (ASL) fluid volume regulation depending on signaling equilibria. In contrast, in human CF airway epithelia, Na^+ currents through ENaC dominate basal ASL volume regulation accompanied by a relatively minor contribution through Ca^2+-activated Cl^− currents. The combination of enhanced ENaC currents and transient Ca^2+-activated Cl^− currents in CF result in an inadequate hydration of the ASL and reduction of mucociliary clearance. Since INO-E2 reduces Na^+ transport through ENaC, we hypothesized that INO-E2 would have a functional effect, similar to amiloride, and inhibit fluid absorption. To test this hypothesis, we exposed well differentiated monolayer cultures of CF nasal epithelia to an apically applied buffer containing INO-E2 and a known concentration of the non-permeable molecule Blue Dextran (BD). The resulting reduction in the ability of these monolayers to concentrate BD was taken as a functional indicator of INO-E2's involvement in the inhibition of ENaC.
# HEPES Modified Ringer's Buffer (HMRB) was used for these assays. HMRB was sterilized by positive pressure filtration through a 0.2 um syringe tip filter (Gelman acrodisc). The BD stock solution was aseptically prepared with sterile buffer (2 mg BD/ml buffer). Compounds to be tested were solubilized in sterile HMRB containing 1 μM BD (final concentration of vehicle is 0.1% (1:1, DMSO+DMSO containing 5% pluronic-F127). […] A standard concentration curve was obtained by determining the optical densities of a serial dilution of 10 μM Blue Dextran in HMRB placed in a Falcon 3027 96-well plate. The optical density of BD in the solution was obtained by analysis at 660 nm in a Packard Spectracount. Standards and samples were analyzed on the same plate. 50 μl volumes were used for all samples and standards. The [BD] of the samples was determined by extrapolation from the standard curve using the Packard I-Smart software. The increase in [BD] from the starting value of 1 μM was taken to be an indication of the magnitude of volume absorption occurring across the monolayer. The rate of absorption was calculated by dividing the change in volume by the duration of the experiment. This value was normalized to a surface area of 1 cm^2, to give μl·cm^2−1·hr^−1. To address evaporative loss, which would appear in the data as artificially high absorptive rates, dummy membranes were constructed by attaching a thin Sylgard sheet to snapwells/transwells with silicon sealant. These dummy membranes were used in parallel with the epithelial monolayers to assess evaporative loss for each experiment.
smiles,measurement,setting,value
"Nc1ncnc2c1ncn2[C@@H]1O[C@H](COP(=O)(O)OP(=O)(O)OP(=O)(O)O)[C@@H](O)[C@H]1O [ATP, adenosine triphosphate, reference compound]",further increase in whole cell chloride current after INO-E2,[1]; ATP contrasted with 10 μM INO-E2,no further increase
"CCCCCCCCOC1C(OC(=O)CCC)C(OP(=O)(OCOC(=O)CC)OCOC(=O)CC)C(OP(=O)(OCOC(=O)CC)OCOC(=O)CC)C(OP(=O)(OCOC(=O)CC)OCOC(=O)CC)C1OP(=O)(OCOC(=O)CC)OCOC(=O)CC (stereo not shown) [INO-4987, 2-O-butyryl-3-O-octyl-myo-inositol 1,4,5,6-tetrakisphosphate octakis (propionoxymethyl) ester]","inhibition of fluid absorption, dose response",[2],dose dependent inhibition of fluid absorption
"N=C(N)NC(=O)c1nc(Cl)c(N)nc1N [amiloride, reference compound]","inhibition of fluid absorption, dose response",[2],inhibited fluid absorption measured by the Blue Dextran assay in a dose dependent fashion
"CCCC(=O)OC1C(OC(=O)CCC)C(OP(=O)(OCOC(=O)CC)OCOC(=O)CC)C(OP(=O)(OCOC(=O)CC)OCOC(=O)CC)C(OC(=O)CCC)C1OP(=O)(OCOC(=O)CC)OCOC(=O)CC (stereo not shown) [INO-4981, 1,2,5-tri-O-butyryl-myo-inositol 3,4,6-trisphosphate hexakis (propionoxymethyl) ester]","inhibition of fluid absorption, dose response",[2],dose dependent inhibition of fluid absorption
"CCCC(=O)OC1C(OP(=O)(OCOC(=O)CC)OCOC(=O)CC)C(OC(=O)CCC)C(OP(=O)(OCOC(=O)CC)OCOC(=O)CC)C(OP(=O)(OCOC(=O)CC)OCOC(=O)CC)C1OP(=O)(OCOC(=O)CC)OCOC(=O)CC (stereo not shown) [INO-230, 2,6-Di-O-butyryl-myo-inositol 1,3,4,5-tetrakisphosphate octakis(propionoxymethyl) ester]",inhibition of fluid absorption 42 hrs after exposure,"[2]; 10 μM, 2 hr exposure, measured 42 hrs after",significantly inhibits
same,change of potency on fluid absorption with repeat administration,"[2]; 2 hours each day for 8 days at 0.1 μM or 1 μM, n=6",enhancement of compound potency
same,"inhibition of fluid absorption, dose response",[2],dose dependent inhibition of fluid absorption
same,relative potency on fluid absorption after pulsed exposure,[2]; INO-230 vs INO-E2,more potent than INO-E2
same,duration of effect on fluid secretion following a brief (pulsed) exposure,"[2]; pulsed exposure, FIG. 17",prolonged effects
same,potency of inhibition of fluid absorption on repeated exposure,"[2]; repeated apical low doses over 96-192 hours, FIG. 17",nanomolar range
"CCCC(=O)OC1C(OP(=O)(OCOC(=O)CC)OCOC(=O)CC)C(OC(=O)CCC)C(OP(=O)(OCOC(=O)CC)OCOC(=O)CC)C(OC(=O)CCC)C1OP(=O)(OCOC(=O)CC)OCOC(=O)CC (stereo not shown) [INO-4992, 2,4,6-tri-O-butyryl-myo-inositol 1,3,5-trisphosphate hexakis (propionoxymethyl) ester]",potency on fluid absorption relative to 100 μM amiloride,[2]; 5 uM,nearly as potent as 100 μM amiloride
same,"inhibition of fluid absorption, dose response",[2],dose dependent inhibition of fluid absorption
"CCCC(=O)OC1C(OC(=O)CCC)C(OP(=O)(OCOC(=O)CC)OCOC(=O)CC)C(OP(=O)(OCOC(=O)CC)OCOC(=O)CC)C(OC(=O)CCC)C1OP(=O)(OCOC(=O)CC)OCOC(=O)CC (stereo not shown) [INO-4982, 2,3,5-tri-O-butyryl-myo-inositol 1,4,6-trisphosphate hexakis (propionoxymethyl) ester]","inhibition of fluid absorption, dose response",[2],dose dependent inhibition of fluid absorption
"CCC(=O)OCOP(=O)(OCOC(=O)CC)OC1C2OC3(CC4CCC3(C)C4(C)C)OC2C(OP(=O)(OCOC(=O)CC)OCOC(=O)CC)C(OP(=O)(OCOC(=O)CC)OCOC(=O)CC)C1OP(=O)(OCOC(=O)CC)OCOC(=O)CC (stereo not shown) [INO-4984, 2,3-camphanylidene-myo-inositol 1,4,5,6-tetrakisphosphate octakis (propionoxymethyl) ester]",potency on fluid absorption relative to 100 μM amiloride,[2]; 100 μM,more potent than 100 μM amiloride
same,"inhibition of fluid absorption, dose response",[2],dose dependent inhibition of fluid absorption
"CCC(=O)OCOP(=O)(OCOC(=O)CC)OC1C2OC3(CC4CCC3(C)C4(C)C)OC2C(OP(=O)(OCOC(=O)CC)OCOC(=O)CC)C(OP(=O)(OCOC(=O)CC)OCOC(=O)CC)C1OP(=O)(OCOC(=O)CC)OCOC(=O)CC (stereo not shown) [INO-4996, 1,2-camphanylidene-myo-inositol 3,4,5,6-tetrakisphosphate octakis (propionoxymethyl) ester]","inhibition of fluid absorption, dose response",[2],dose dependent inhibition of fluid absorption
"CCCC(=O)OC1C(OCCCc2ccccc2)C(OP(=O)(OCOC(=O)CC)OCOC(=O)CC)C(OP(=O)(OCOC(=O)CC)OCOC(=O)CC)C(OP(=O)(OCOC(=O)CC)OCOC(=O)CC)C1OP(=O)(OCOC(=O)CC)OCOC(=O)CC (stereo not shown) [INO-4997, 2-O-butyryl-1-O-(3-phenylpropyl)-myo-inositol 3,4,5,6-tetrakis-phosphate octakis (propionoxymethyl) ester]",activity on fluid absorption as share of activity of 100 μM amiloride,[2]; 1 μM,50%
same,"inhibition of fluid absorption, dose response",[2],dose dependent inhibition of fluid absorption
"O=C(O)c1cccnc1Nc1cccc(C(F)(F)F)c1 [niflumic acid, reference compound]",block of INO-E2 mediated whole cell current,[1]; 100 μM,completely blocked
